Test systems include K-562 leukemia; HT29 colon; OVCAR-4 ovarian; MDA-MB-231 breast; T-47D breast; MALME-3M melanoma; ACHN renal; SN12C renal; RXF 393 renal; SW-620 colon.
Common to all, as to experiment: NCI anticancer screen, dose series, 48 h

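Protocol summary: plate cells (96-well), add compound at 5 concentrations, incubate 48 h, interpolate endpoints linearly. Definition used: TGI = concentration required for complete inhibition of growth.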

For the compound `COc1c2c(cc3c1C1(O)Cc4ccc5c(c4C[N+]1(C)CC3)OCO5)OCO2` (configuration not stated), the TGI with K-562 leukemia, in the test on HT29 colon, in the test on OVCAR-4 ovarian, in the test on MDA-MB-231 breast, in the test on T-47D breast and with MALME-3M melanoma was more than 100 µM each time. The TGI in the test on ACHN renal, in the test on SN12C renal, in the test on RXF 393 renal and in the test on SW-620 colon was more than 100 µM throughout.

On to `COP(=O)(OC)/C(=C/c1cn(C(c2ccccc2)(c2ccccc2)c2ccccc2)cn1)NC=O`, for which the TGI in the test with K-562 leukemia was more than 100 µM; in the test with HT29 colon it was 33.8 µM; in the test on OVCAR-4 ovarian it was 51.9 µM; in the test on MDA-MB-231 breast, 33.5 µM; in the test on T-47D breast, more than 100 µM; in the test on MALME-3M melanoma, 38.5 µM. For the same compound, the TGI in the test on ACHN renal turned out to be 24.6 µM; in the test with SN12C renal, 46.4 µM; in the test on RXF 393 renal, 35.1 µM; with SW-620 colon it was 78.1 µM.

As to `CC(C)(C)OC(=O)Cn1ncn(NC(=O)Cc2ccccc2)c1=O`, the TGI in the test with K-562 leukemia, with HT29 colon, with OVCAR-4 ovarian, with MDA-MB-231 breast, in the test with T-47D breast and with MALME-3M melanoma was more than 10 µM each time. Besides, the TGI in the test on ACHN renal, in the test with SN12C renal and with SW-620 colon was more than 10 µM throughout.

As for `O=S(=O)(/N=C(\NO)Nc1ccc(Cl)cc1)c1ccccc1`, the TGI with K-562 leukemia is more than 100 µM; in the test with HT29 colon, 41.3 µM; in the test on OVCAR-4 ovarian, more than 61.2 µM; in the test with MDA-MB-231 breast it was more than 100 µM; with T-47D breast it was more than 83.3 µM; in the test with MALME-3M melanoma, 22.5 µM. The TGI in the test with ACHN renal is 36.3 µM; in the test with SN12C renal, 35.2 µM; with RXF 393 renal it was 40 µM; in the test with SW-620 colon, more than 100 µM.

With `C=CCc1cc(C(Cc2ccccc2)NC(C)C)cc(OCc2ccccc2)c1OCc1ccccc1` (configuration not stated), the TGI in the test with K-562 leukemia is 40.9 µM; in the test with HT29 colon, 28.6 µM; with OVCAR-4 ovarian, 33.1 µM; in the test on MDA-MB-231 breast it was 28.3 µM; with T-47D breast, 29.2 µM; in the test with MALME-3M melanoma, 28.9 µM. Besides, the TGI with ACHN renal was found to be 30.5 µM; in the test on SN12C renal, 29.4 µM; in the test with RXF 393 renal, 30.4 µM; in the test on SW-620 colon, 32.5 µM.

Take `CCCC1(CCC)c2cc(/C=N\O)ccc2-c2ccc(-c3ccc(C(C)(C)C)cc3)cc21`: the TGI in the test with K-562 leukemia is more than 100 µM; with HT29 colon, more than 100 µM; in the test on OVCAR-4 ovarian, more than 100 µM; in the test on MDA-MB-231 breast it was 39.7 µM; in the test with T-47D breast, more than 100 µM; in the test on MALME-3M melanoma, more than 100 µM. For the same compound, the TGI is more than 100 µM with ACHN renal, 53.5 µM in the test with SN12C renal and more than 100 µM in the test on SW-620 colon.

In the case of `C[N+]1(CCC[N+]2(C)CC3C4C=CC(CC4)C3C2)CCOCC1` (configuration not stated), the TGI with K-562 leukemia, with HT29 colon, in the test on OVCAR-4 ovarian, in the test on MDA-MB-231 breast, with T-47D breast and with MALME-3M melanoma was more than 100 µM throughout. Further, the TGI in the test with ACHN renal, in the test with SN12C renal, in the test with RXF 393 renal and in the test on SW-620 colon was more than 100 µM in each case.

As for `Nc1c2c(nc3ccccc13)-c1ccccc1NCCC2`, the TGI is more than 100 µM in the test on K-562 leukemia; 83.9 µM in the test on HT29 colon; more than 100 µM in the test on OVCAR-4 ovarian; 53.5 µM with MDA-MB-231 breast; 77.9 µM with T-47D breast; 32.9 µM in the test with MALME-3M melanoma. For the same compound, the TGI in the test on ACHN renal was more than 100 µM; in the test on SN12C renal it was more than 100 µM; in the test with RXF 393 renal it was 33.2 µM; with SW-620 colon, more than 100 µM.

On to `c1ccc2c(c1)ccn1ccc3c4ccccc4nc-3c21`, for which the TGI in the test with K-562 leukemia was determined as 0.567 µM; in the test with HT29 colon, 1.58 µM; in the test on OVCAR-4 ovarian, 1.75 µM; in the test with MDA-MB-231 breast, 2.2 µM; in the test on T-47D breast, 3.51 µM; in the test on MALME-3M melanoma it was 2.01 µM. The TGI was 1.87 µM in the test with ACHN renal, 2.1 µM in the test with SN12C renal, 2.39 µM in the test on RXF 393 renal and 2.34 µM with SW-620 colon.

As to `CCOC(=O)C(O)(C(=O)OCC)c1cc(C(C)(C)C)c(O)c(C(C)(C)C)c1`, the TGI with K-562 leukemia, in the test on HT29 colon, in the test with OVCAR-4 ovarian, with MDA-MB-231 breast, in the test with T-47D breast and with MALME-3M melanoma was more than 100 µM throughout. In addition, the TGI is more than 100 µM with ACHN renal, more than 100 µM in the test with SN12C renal, 77.1 µM with RXF 393 renal and more than 100 µM in the test with SW-620 colon.

For the compound `N#CCN(CC#N)C1CC=CCC1N(CC#N)CC#N` (configuration not stated), the TGI in the test with K-562 leukemia, in the test on HT29 colon, with OVCAR-4 ovarian, with MDA-MB-231 breast, in the test on T-47D breast and in the test on MALME-3M melanoma was more than 100 µM throughout. In addition, the TGI in the test on ACHN renal, in the test on SN12C renal, in the test on RXF 393 renal and in the test with SW-620 colon was more than 100 µM each time.

As for `O=[N+]([O-])/C(C(Cl)=C(Cl)Cl)=C(\N1CCCCC1)n1nnc2ccccc21`, the TGI in the test with K-562 leukemia is 22.5 µM; in the test on HT29 colon it was 39.3 µM; in the test on OVCAR-4 ovarian, more than 100 µM; in the test with MDA-MB-231 breast, 34.5 µM; in the test on T-47D breast, more than 100 µM; with MALME-3M melanoma, 39.6 µM. Also, the TGI in the test with ACHN renal came to 42.3 µM; in the test with SN12C renal, 33.7 µM; with RXF 393 renal it was 43.6 µM; in the test on SW-620 colon, 39.1 µM.

For the compound `CCC(O)c1ccc(N=Cc2ccccc2O)cc1` (configuration not stated), the TGI in the test on K-562 leukemia, in the test with HT29 colon, with OVCAR-4 ovarian, in the test on MDA-MB-231 breast, with T-47D breast and in the test with MALME-3M melanoma was more than 100 µM each time. Besides, the TGI in the test on ACHN renal, in the test on RXF 393 renal and in the test on SW-620 colon was more than 100 µM throughout.
